According to US11357752B2, “Carolacton and derivatives thereof for use in the treatment of cell proliferation disorders” (Helmholtz-Zentrum für Infektionsforschung GmbH, priority 2017, dated 2022):
Where “and” joins values, the source holds several entries; their conditions need not be identical. Equal entries are not always repeated.

What was measured:
Format in all cases: biochemical, E. coli
ecFoID G8S = biological target: T1, ecFoID G8S (Escherichia coli, UniProt P24186, G8S); test: FoID dehydrogenase (DH) enzyme assay
T1 construct: made in house; host or cells: E. coli BL21 (DE3)
Protocol: (§1) (6R,S)-5,10-Methylene-5,6,7,8-tetrahydrofolic acid ((6R,S)-5,10-CH2-THF), calcium salt and (6R,S)-5,10-Methenyl-5,6,7,8-tetrahydrofolic acid ((6R,S)-5,10-CH=THF) chloride were purchased from Schircks Laboratories (Bauma, Switzerland) and were used as substrates for FoID dehydrogenase and cyclohydrolase enzyme assays, respectively. Only the R-isomer, which accounts for 50% of (6R,S)-5,10-CH2-THF and (6R,S)-5,10-CH=THF, respectively, is used by the enzyme. (6R,S)-5,10-CH2-THF was dissolved in N2-spargeled basic buffer (50 mM Tris-HCl (pH 8.0), 100 mM β-mercaptoethanol) as described by Sah and Varshney, 2015a (6R,S)-5,10-CH=THF was first dissolved in DMSO as a 100 mM stock solution.
(§2) Because FoID is a bifunctional enzyme, dehydrogenase and cyclohydrolase activities were determined for FoID enzyme kinetics, respectively. The dehydrogenase activity of FoID was assayed for its substrate 5,10-CH2-THF and cofactor NADP+ (in the case of MTHFD2, NAD+ was used as cofactor) based on monitoring the formation of 5,10-CH=THF while the cyclohydrolase activity of FoID was determined for its substrate 5,10-CH=THF by monitoring the hydrolysis of 5,10-CH2-THF. The enzyme kinetics for the dehydrogenase activity of all FoIDs except hsMTHFD1_DC were determined at 30° C. in 50 mM Tris-HCl (pH 7.5), 30 mM β-mercaptoethanol. The hsMTHFD1_DC dehydrogenase activity was measured in 25 mM MOPS (pH 7.3), 30 mM β-mercaptoethanol at 30° C. To measure the enzyme kinetics constants for 5,10-CH2-THF, for example in the case of ecFoID, the NADP concentration was fixed at 1 mM and the concentration of 5,10-CH2-THF varied from 5 μM to 1,500 μM (R-isomer). Similarly, to measure the kinetic constants of ecFoID for NADP+, the concentration of 5,10-CH2-THF (R-isomer) was fixed at 1 mM and the concentration of NADP+ varied from 10 μM to 1,500 μM. For different FoIDs, the varied concentration range of substrates could be different. The 50 μL reactions of dehydrogenase assays were initiated by adding appropriate amounts enzyme (4 nM ecFoID, 4 nM spFoID, 15 nM hsMTHFD1_DC, 20 nM hsMTHFD2, 20 nM G8S, 20 nM Q98H, 10 nM K54N, 200 nM ΔK54R55 in the corresponding assays) and terminated with 50 μL 1 M HCl after 2 min incubation at 30° C. To monitor the formation of 5,10-CH=THF, the absorbance of the reaction mixture was monitored at 350 nm in micro UV cuvettes (BRAND, Essex, Connecticut, USA). The concentration of 5,10-CH=THF produced in the reaction was determined using an extinction co-efficient of 0.0249 μM-1 cm-1. Cyclohydrolase activity for each FoID was assayed in the same buffer as dehydrogenase activity at 30° C. but for 30 s. The concentration of FoID used in each assay was 5 nM of ecFoID, spFoID and hsMTHFD1_DC, respectively, and 2 nM of hsMTHFD2. The consumption of 5,10-CH=THF was measured by recording the absorbance of the reactions at 355 nm using the TECAN Infinite 200 PRO equipped with a monochromator. To measure the enzyme kinetic constants, different concentrations of 5,10-CH=THF (varied from […]) were used in […] reaction mixtures. The inhibition constants (Ki) of carolacton on FoID were determined by measuring the apparent Km values when adding certain amounts of carolacton to the enzyme reactions. For ecFoID, 10 nM carolacton was added in the dehydrogenase assay and 50 nM carolacton was used in the cyclohydrolase assay. For spFoID, 25 nM carolacton was added in both dehydrogenase assay and cyclohydrolase assay. For hsMTHFD1_DC, 30 nM carolacton was added in the dehydrogenase assay and 10 nM in the cyclohydrolase assay. […] To compare the inhibition effects of carolacton between the different FoIDs, the half maximal inhibitory concentration (IC50) of carolacton on the same amount of enzyme was determined for FoIDs involved in this study. The enzyme concentration used to determine dehydrogenase activity IC50 was 10 nM, and the enzyme used for cyclohydrolase IC50 measurements was 5 nM. All enzyme kinetics measurements were performed as independent triplicates. […]

ecFoID Q98H = biological target: T2, ecFoID Q98H (Escherichia coli, UniProt P24186, Q98H); test: FoID dehydrogenase (DH) enzyme assay
T2 construct: made in house; host or cells: E. coli BL21 (DE3)
Protocol: as §1, §2

ecFoID K54N = biological target: T3, ecFoID K54N (Escherichia coli, UniProt P24186, K54N); test: FoID dehydrogenase (DH) enzyme assay
T3 construct: made in house; host or cells: E. coli BL21 (DE3)
Protocol: as §1, §2

ecFoID ΔK54R55 = biological target: T4, ecFoID ΔK54R55 (Escherichia coli, UniProt P24186, DEL54-55); test: FoID dehydrogenase (DH) enzyme assay
T4 construct: made in house; host or cells: E. coli BL21 (DE3)
Protocol: as §1, §2

ecFoID = biological target: T5, ecFoID (Escherichia coli, UniProt P24186); test: FoID cyclohydrolase (CYH) enzyme assay
T5 construct: His-tag (vector pHis-TEV); made in house; host or cells: E. coli BL21 (DE3)
Protocol: as §1
Because FoID is a bifunctional enzyme, dehydrogenase and cyclohydrolase activities were determined for FoID enzyme kinetics, respectively. The dehydrogenase activity of FoID was assayed for its substrate 5,10-CH2-THF and cofactor NADP+ (in the case of MTHFD2, NAD+ was used as cofactor) based on monitoring the formation of 5,10-CH=THF while the cyclohydrolase activity of FoID was determined for its substrate 5,10-CH=THF by monitoring the hydrolysis of 5,10-CH2-THF. The enzyme kinetics for the dehydrogenase activity of all FoIDs except hsMTHFD1_DC were determined at 30° C. in 50 mM Tris-HCl (pH 7.5), 30 mM β-mercaptoethanol. […]

CO[C@H](CC(=O)O)[C@@H](C)C(=O)[C@H](C)/C=C(\C)[C@H]1OC(=O)[C@H](O)[C@H](O)/C=C/[C@H](C)CCC[C@@H]1C [Carolacton, carolacton]
IC50 (ecFoID G8S): 86.5 nM
IC50 (ecFoID Q98H): 313 nM
sensitivity of residual DH activity to carolacton (ecFoID K54N): completely insensitive
sensitivity of residual DH activity to carolacton (ecFoID ΔK54R55): completely insensitive
IC50 (ecFoID): 49.8 nM
Ki (ecFoID; Ki (5,10-CH═THF), carolacton inhibition on CYH activity, ecFoID, vs 5,10-CH=THF): 32 nM and 31.6 nM
